# Laboratory results reported in patent publication US20250092030A1, “ENHANCERS OF PARTICULATE GUANYLYL CYCLASE RECEPTOR A” (Mayo Foundation for Medical Education and Research, priority 2023, published 2025).
# “And” between values parts separate entries of the source, which are not always exact repeats. Equal values may be shown once.
# Target: T1, particulate guanylyl cyclase receptor A (pGC-A) (Homo sapiens, UniProt P16066)
# T1 construct: expressed in transfected cells; host or cells: HEK293
# T1 sequence (P16066 33-1061): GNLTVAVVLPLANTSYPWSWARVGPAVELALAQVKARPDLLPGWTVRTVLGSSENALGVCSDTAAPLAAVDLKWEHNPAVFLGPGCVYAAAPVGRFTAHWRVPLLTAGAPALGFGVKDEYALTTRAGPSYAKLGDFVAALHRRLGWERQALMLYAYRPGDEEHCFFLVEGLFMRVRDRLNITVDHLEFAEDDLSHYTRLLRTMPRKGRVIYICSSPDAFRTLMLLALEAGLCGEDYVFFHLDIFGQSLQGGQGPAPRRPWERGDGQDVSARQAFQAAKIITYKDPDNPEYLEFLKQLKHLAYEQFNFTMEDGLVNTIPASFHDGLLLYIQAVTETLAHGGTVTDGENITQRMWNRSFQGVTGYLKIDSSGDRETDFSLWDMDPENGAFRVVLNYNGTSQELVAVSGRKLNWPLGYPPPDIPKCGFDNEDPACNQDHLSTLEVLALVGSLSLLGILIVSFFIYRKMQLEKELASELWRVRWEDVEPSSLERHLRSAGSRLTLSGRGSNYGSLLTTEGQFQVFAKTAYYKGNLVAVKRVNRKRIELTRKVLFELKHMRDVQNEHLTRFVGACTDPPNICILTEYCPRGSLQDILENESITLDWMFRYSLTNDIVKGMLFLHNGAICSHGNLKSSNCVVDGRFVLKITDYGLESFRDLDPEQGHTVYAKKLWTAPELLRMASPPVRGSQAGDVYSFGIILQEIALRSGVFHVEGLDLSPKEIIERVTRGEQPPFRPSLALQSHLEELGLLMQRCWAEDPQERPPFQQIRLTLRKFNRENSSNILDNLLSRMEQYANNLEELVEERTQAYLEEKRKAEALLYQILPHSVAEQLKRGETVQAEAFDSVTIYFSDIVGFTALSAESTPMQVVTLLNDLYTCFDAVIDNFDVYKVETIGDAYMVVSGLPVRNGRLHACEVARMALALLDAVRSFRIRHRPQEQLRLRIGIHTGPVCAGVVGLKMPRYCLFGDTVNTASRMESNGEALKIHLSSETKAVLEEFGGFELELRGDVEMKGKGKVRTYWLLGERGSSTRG
# T1 sequence (P01160 124-151 partner limits assumed): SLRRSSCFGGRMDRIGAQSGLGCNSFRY
# Experiment: cGMP production by HTRF in HEK293 cells overexpressing pGC-A, with ANP
# Type: cell-based
# Details: HEK293, HEK293 cells overexpressing pGC-A; cGMP normalized to maximal amount produced by an EC80 concentration of ANP; read-out: Max efficacy
# Text: Assay: Generally, the assay monitors the production of cGMP, the second messenger generated by pGC-A, by Time-Resolved Florescence (HTRF) in HEK293 cells overexpressing the pGC-A. pGC-A suspension cells were stimulated in the presence of the test compound and an EC20 concentration of ANP. The quantity of cGMP was detected by competitive immunoassay using Eu^3+ cryptate-labeled anti-cGMP and d2-labeled cGMP and normalized to maximal amount produced by an EC80 concentration of ANP. Compound EC50 values were determined in the primary assay, in the presence or absence of ANP, to determine mode of action as positive modulators and tested for selectivity in the same assay platform but in HEK cells overexpressing the particulate guanylyl cyclase B receptor (pGC-B), of which CNP is the endogenous ligand.
# Assay details: 20 nL of 10 μM test compound in DMSO was added to columns 5-48 of 1536 well white high base screening plates (Corning, New York, NY) cells using 550 ECHO acoustic dispenser (Labcyte, San Jose, CA). Alpha-atrial natriuretic peptide (ANP) (Phoenix Pharmaceutics) was prepared as stock aliquots at 5 μM in PBS with 0.1% BSA. An approximate […] concentration of ANP ([…]) in assay buffer (HBSS containing 5 mM HEPES and 0.05% BSA) was added to columns 3-48 at a volume of 1 μL. Assay buffer only was added to column 1 and assay buffer containing a saturating concentration of ANP (5 nM) was added to column 2. HEK293 cells overexpressing GC-A were resuspended in assay media (OptimMem media containing 2% Heat-inactivated Fetal bovine serum and L-glutamine) at a density of 6×10^5 cells/mL and 2 μL were plated in screening plates (1200 cells/well) in suspension using a Bioraptr 2. Plates were spun at 1000 rpm for 1 min and incubated for 30 min at room temperature. 1.5 μL d2-labeled cGMP followed by 1.5 μL Eu^3+ cryptate-labeled anti-cGMP cGMP detection kit (CiBio; #62GM2PEC) prepared according to manufacturer's protocol were added to all wells using a Bioraptr 2 and TR-FRET signal was detected on an EnVision detector (PerkinElmer). Wells treated with 0.3% DMSO only serve as blank controls (column 1); wells treated with 0.3% DMSO and 5 nM ANP (columns 2) serve as positive controls and wells treated with 0.3% DMSO and […] ANP (columns 3-4) serve as negative controls.
row,Emax [%],SMILES
1,70,CC(C)NC(=O)N1CCCC(C(=O)Nc2nc3c(F)cc(F)cc3s2)C1 (centres unmarked) [compound 278]

# Same assay, conditions: HEK293 cells overexpressing pGC-A; cGMP normalized to maximal amount produced by an EC80 concentration of ANP
row,Max efficacy [%],SMILES
1,77,COc1cc(F)c2nc(NC(=O)C3CCCN(CCN(C)C)C3)sc2c1 (centres unmarked) [compound 021]

# Same assay, conditions: HEK293 cells overexpressing pGC-A; test compound plus EC20 concentration of ANP; cGMP by HTRF
row,EC50,SMILES
1,> 5 µM,CN(C)CCN1CCCC(C)(C(=O)Nc2nc3c(F)cc(F)cc3s2)C1 (centres unmarked) [compound 228]
2,> 5 µM,CN(C)CCN1CCCC(C(=O)Nc2ncc(-c3ccccc3)s2)C1 (centres unmarked) [compound 169]
3,> 5 µM,CN(C)CCN1CCCC(C(=O)Nc2nc(-c3cccc(F)c3)cs2)C1 (centres unmarked) [compound 146]
4,> 5 µM,CN(C)CCN1CCCC(C(=O)Nc2nc3c(Cl)cc(Cl)cc3s2)C1 (centres unmarked) [compound 251]
5,> 5 µM,COCc1cc(F)c2nc(NC(=O)C3CCCN(CCN(C)C)C3)sc2c1 (centres unmarked) [compound 029]
6,> 5 µM,COc1cccc(-c2csc(NC(=O)C3CCCN(CCN(C)C)C3)n2)c1 (centres unmarked) [compound 155]
7,> 10 µM,CN(C)CCN1CCCC(C(=O)Nc2nc3c(C(F)(F)F)cccc3s2)C1 (centres unmarked) [compound 002]
8,> 5 µM,Cc1ccc(-c2csc(NC(=O)C3CCCN(CCN(C)C)C3)n2)cc1 (centres unmarked) [compound 153]
9,> 5 µM,CN(C)CCN1CCCC(C(=O)Nc2nc3c(Cl)ccc(Cl)c3s2)C1 (centres unmarked) [compound 252]
10,> 5 µM,O=C(Nc1nc2c(F)cc(F)cc2s1)C1CNCc2ccccc21 (centres unmarked) [compound 060]
11,> 5 µM,CN(C)CCN1CCCC(C(=O)Nc2nc(-c3ccccc3F)cs2)C1 (centres unmarked) [compound 145]
12,> 5 µM,O=C(O)CNCCN1CCCC(C(=O)Nc2nc3c(F)cc(F)cc3s2)C1 (centres unmarked) [compound 260]
13,> 10 µM,CN(C)CCN1CCCC(C(=O)Nc2nc3c(-c4ccccc4)cccc3s2)C1 (centres unmarked) [compound 003]
14,> 10 µM,COc1cccc(C(=O)Nc2nc3c(F)cc(F)cc3s2)c1 [compound 204]
15,> 10 µM,O=C(Nc1nc2c(F)cc(F)cc2s1)c1ccc(-c2ccccc2)cc1 [compound 206]
16,> 5 µM,COC(=O)c1cc(F)c2nc(NC(=O)C3CCCN(CCN(C)C)C3)sc2c1 (centres unmarked) [compound 023]
17,> 5 µM,CN(C)CCN1CCCC(C(=O)Nc2nc3c(F)cc(F)cc3[nH]2)C1 (centres unmarked) [249a]
18,6.7 µM and 1.7 µM,COc1cc(F)c2nc(NC(=O)C3CCCN(CCN(C)C)C3)sc2c1 (centres unmarked) [compound 021]
19,> 5 µM,O=C(Nc1nc2c(F)cc(F)cc2s1)C1CCCN(C(=O)Nc2ccccc2)C1 (centres unmarked) [compound 280]
20,> 5 µM,CN(C)CCN1CCCC(C(=O)Nc2nc(-c3ccc(F)cc3)cs2)C1 (centres unmarked) [compound 147]
21,> 5 µM,CN(C)CCN1CCCC(C(=O)Nc2nc(-c3ccccc3)cs2)C1 (centres unmarked) [compound 144]
22,> 5 µM,CN(C)CCN1CCCC(C(=O)Nc2nc3c(F)cc(C(F)(F)F)cc3s2)C1 (centres unmarked) [compound 019]
23,> 10 µM,Cc1ccc2nc(NC(=O)C3CCCN(CCN(C)C)C3)sc2c1 (centres unmarked) [compound 017]
24,> 5 µM,CN(C)CCN1CCCC(C(=O)Nc2ccc3cccc(F)c3n2)C1 (centres unmarked) [compound 191]
25,> 5 µM,O=C(Nc1nc2c(F)cc(F)cc2s1)C1CCCN(c2ccccn2)C1 (centres unmarked) [compound 079]
26,> 10 µM,O=C(Nc1nc2c(F)cc(F)cc2s1)c1cccc(Cl)c1 [compound 201]
27,2.6 µM,CC(C)NC(=O)N1CCCC(C(=O)Nc2nc3c(F)cc(F)cc3s2)C1 (centres unmarked) [compound 278]
